Source: US20190177279A1, “CARBOXYLIC ACID AROMATIC 1,2-CYCLOPROPYLAMIDES” (Bayer Pharma Aktiengesellschaft, priority 2017, published 2019)

Test system: stimulated IMR-90 cells
Experiment: Cell viability, CellTiter-Glo Luminescent Assay
Assay type: cell-based, human
Description: IMR-90 cells were cultured in Eagle's Minimum Essential Medium (EMEM) containing 2 mM L-glutamine, 1 g/L glucose, 1.5 g/L NaHCO3, 1 mM sodium pyruvate and non-essential amino acids (ATCC, 30-2003™) supplemented with 10% FBS (Biochrom, 50615) and 50 U/mL Penicillin, 50 μg/mL Streptomycin (PAA, P11-010). The assay was performed in EMEM and a cell density of […] IMR-90 cells/96-well. The compound examples were serially diluted in 100% DMSO and evaluated at 8 different concentrations within the range of 3 nM and 10 μM and a final DMSO concentration of 0.4%. The IMR-90 cells were incubated with the respective concentration of the compound for 30 min. […] The amount of IL-6 and IL-8 in the supernatant was determined using the Human ProInflammatory Panel II (4-Plex) (MSD, K15025B) according to manufacturer's instruction. […] Plates were washed three times with phosphate-buffered saline (PBS; 137 mM NaCl, 2.7 mM KCl, 6.5 mM Na2HP04, 1.7 mM KH2P04) containing 0.05% Tween-20 (Bio-Rad, 161-0781) and electrochemiluminescence detected using the MSD Sector Imager 6000 plate reader. The cell viability was measured using the CellTiter-Glo Luminescent Assay (Promega, G7571) following the manufacturers protocol. […] After incubation and shaking for 10 minutes luminescent signal was measured which was proportional to the amount of ATP present. […]

O=C(O)c1cc(NC(=O)C2CC2c2ccc(Cl)cc2)cc(F)c1-c1cnn(C2CCC2)c1 (racemic) [Example 2, 5-({[2-(4-chlorophenyl)cyclopropyl]carbonyl}amino)-2-(1-cyclobutyl-1H-pyrazol-4-yl)-3-fluorobenzoic acid]
effect on the cell viability: no effect
